# Laboratory results: patent publication US11577010B2, “Hemostatic devices and methods of use” (priority 2017, dated 2023)
# Tests used:
# [1] = tested on: myofibroblast formation; details: Ajmal et al. (2003) Plast. Reconstr. Surg. 112:1455-1461; cited from earlier work
# [2] = stability of rifampin and minocycline in PBS with and without tranexamic acid (Example 14); assay type: physicochemical; details: regardless of temperature (RT about 23° C. and 37° C.)
# Method: The mixtures were tested both at room temperature (RT) (about 23° C.) and at 37° C.
# [3] = in vitro elution of rifampin and minocycline from p22-27.5 polymers with TXA in release media (Example 15); assay type: physicochemical; details: PBS pH 7.4 without or with TXA 0.05 mg/mL or 5 mg/mL, over 25 hours
# Method: B1=PBS pH 7.4; B2=PBS, pH 7.4+TXA (0.05 mg/mL); B3=PBS, pH 7.4+TXA (5 mg/mL).
# [4] = tested on: blood; assay: in vitro blood clotting time with different amounts of TXA in presence of TYRX (Example 17); assay type: biochemical; details: higher amounts of TXA (1.6 mg TXA vs 200 mg of TXA), in the presence of TYRX
# Method: Tests were conducted to compare the time required to induce blood clotting in vitro when different amounts of hemostatic agent is administered in the presence of TYRX (degradable mesh coated with P22-27.5 containing rifampin and minocycline), as shown in FIG. 40. Clotting time was […] when higher amounts of TXA was present (1.6 mg TXA vs 200 mg of TXA), as shown below in FIG. 44.
# [5] = tested on: blood; assay: in vitro time required to induce blood clotting (Example 18); assay type: biochemical; details: 1.2 mg of TXA alone
# Method: Tests were conducted to compare the time required for different hemostatic agents to induce blood clotting in vitro versus the time required to induce blood clotting in vitro when no hemostatic agent is administered. In particular, the time required to induce blood clotting was plotted for blood alone, a polymer in the p22-xx family (P22-27.5-TYRX), Surgicel, a polymer in the p22-xx family (P22-27.5-TYRX) with 1.6 mg of TXA, 1.2 mg of TXA alone and a polymer in the p22-xx family (P22-27.5-TYRX) with X mg of TXA.
# Tests were conducted to compare the time required for different hemostatic agents to induce blood clotting in vitro versus the time required to induce blood clotting in vitro when no hemostatic agent is administered. In particular, the time required to induce blood clotting was plotted for blood alone, TYRX, Surgicel, TYRX with 1.6 mg of TXA, 1.2 mg of TXA alone and TYRX with 200 mg of TXA. In this example, TYRX refers to a Glycoprene mesh that is coated with P22-27.5 (a polymer in the P22-X family) containing Rifampin and Minocycline.
# [6] = given preoperatively; cited from earlier work
compound,measurement,setting,value
"O=S(=O)([O-])CCS.[Na+] [MESNA, sodium 2-mercaptoethane sulfonate]",myofibroblast formation,[1],diminish myofibroblast formation
CO[C@H]1/C=C/O[C@@]2(C)Oc3c(C)c(O)c4c(O)c(c(/C=N/N5CCN(C)CC5)c(O)c4c3C2=O)NC(=O)/C(C)=C\C=C\[C@H](C)[C@H](O)[C@@H](C)[C@@H](O)[C@@H](C)[C@H](OC(C)=O)[C@@H]1C [rifampin],"percentage area of rifampin, mixtures with vs without tranexamic acid",[2],substantially the same
same,"elution rates, effect of TXA in the release media",[3],not effected
NC[C@H]1CC[C@H](C(=O)O)CC1 [tranexamic acid],Clotting time,[4],increased
same,time to induce blood clotting,[5],about 19 minutes
same,time to reach plasma concentrations,[6],5 to 15 min
